Reference: patent publication US20080242663A1, “NOVEL PYRIMIDINE DERIVATIVES 698” (ASTRAZENECA AB, priority 2007, published 2008)

Target: T1, recombinant EphB4 (Homo sapiens, UniProt P54760)
T1 construct: amino acids 563-987; Swiss-Prot Acc; No. P54760; purchased ProQinase GmbH 0178-0000-3
T1 sequence (P54760 563-987): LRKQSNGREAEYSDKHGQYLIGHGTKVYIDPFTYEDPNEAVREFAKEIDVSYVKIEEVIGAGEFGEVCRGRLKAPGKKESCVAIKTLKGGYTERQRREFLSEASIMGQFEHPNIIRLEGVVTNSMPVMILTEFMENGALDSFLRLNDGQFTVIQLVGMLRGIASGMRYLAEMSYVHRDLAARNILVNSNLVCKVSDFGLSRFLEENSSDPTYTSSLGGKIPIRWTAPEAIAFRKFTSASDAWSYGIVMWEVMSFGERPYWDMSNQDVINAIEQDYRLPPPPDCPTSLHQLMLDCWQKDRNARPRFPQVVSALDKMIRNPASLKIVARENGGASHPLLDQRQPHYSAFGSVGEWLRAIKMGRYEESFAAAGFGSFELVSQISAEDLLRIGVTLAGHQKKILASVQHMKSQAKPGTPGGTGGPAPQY
Assay: In vitro EphB4 enzyme assay (Alphascreen)
Format: biochemical
Experimental: This assay detects inhibitors of EphB4-mediated phosphorylation of a polypeptide substrate using Alphascreen™ luminescence detection technology. Briefly, recombinant EphB4 was incubated with a biotinylated-polypeptide substrate (biotin-poly-GAT) in presence of magnesium-ATP. The reaction was stopped by addition of EDTA, together with streptavidin-coated donor beads which bind the biotin-substrate containing any phosphorylated tyrosine residues. Anti-phosphotyrosine antibodies present on acceptor beads bind to phosphorylated substrate, thus bringing the donor & acceptor beads into close proximity. Subsequent excitation of the donor beads at 680 nm generated singlet oxygen species that interact with a chemiluminescer on the acceptor beads, leading to light emission at 520-620 nm. The signal intensity is directly proportional to the level of substrate phosphorylation and thus inhibition is measured by a decrease in signal.
Assay plates were then incubated at room temperature for 1 hr. […] The plates were sealed under natural lighting conditions, wrapped in aluminium foil and incubated in the dark for a further 20 hrs.
The resulting assay signal was determined on the Perkin Elmer EnVision plate reader. The minimum value was subtracted from all values, and the signal plotted against compound concentration to generate IC50 data.

Structure (SMILES) | IC50 [nM]
COc1ccc(C)c(N(C)c2ccnc(Nc3cc(N4CCOCC4)cc(N4CCOCC4=O)c3)n2)c1 [Example 12.7, 4-[3-[[4-[(5-methoxy-2-methyl-phenyl)-methyl-amino]pyrimidin-2-yl]amino]-5-morpholin-4-yl-phenyl]morpholin-3-one] | 305
COc1ccc(C)c(N(C)c2ccnc(Nc3cc(N4CCOCC4)cc(N4CCOC[C@@H]4C)c3)n2)c1 [Example 12.8, (S)-N4-(5-methoxy-2-methylphenyl)-N4-methyl-N2-(3-(3-methylmorpholino)-5-morpholinophenyl)pyrimidine2,4-diamine] | 5.82
COc1ccc(NC(C)=O)c(N(C)c2ccnc(Nc3cc(N4CCOCC4)cc(N4CCOCC4)c3)n2)c1 [Example 13.1, N-[2-[[2-[(3,5-dimorpholin-4-ylphenyl)amino]pyrimidin-4-yl]-methyl-amino]-4-methoxy-phenyl]acetamide] | 470
COc1ccc(NC(C)=O)c(N(C)c2ccnc(Nc3cc(N4CCOCC4)cc(S(C)(=O)=O)c3)n2)c1 [Example 13.2, N-[4-methoxy-2-[methyl-[2-[(3-methylsulfonyl-5-morpholin-4-yl-phenyl)amino]pyrimidin-4-yl]amino]phenyl]acetamide] | 426
CN(c1ccnc(Nc2cc(N3CCOCC3)cc(N3CCOCC3)c2)n1)c1cccc(F)c1F [Example 14, N′-(2,3-difluorophenyl)-N-(3,5-dimorpholin-4-ylphenyl)-N′-methyl-pyrimidine-2,4-diamine] | 370
CN(c1ccnc(Nc2cc(N3CCOCC3)cc(N3CCOCC3)c2)n1)c1ccc(Cl)cc1Cl [Example 15.1, N′-(2,4-dichlorophenyl)-N-(3,5-dimorpholin-4-ylphenyl)-N′-methyl-pyrimidine-2,4-diamine] | 34100
COc1cc(N(C)c2ccnc(Nc3cc(N4CCOCC4)cc(N4CCOCC4)c3)n2)ccc1C#N [Example 15.2, 4-[[2-[(3,5-dimorpholin-4-ylphenyl)amino]pyrimidin-4-yl]-methyl-amino]-2-methoxy-benzonitrile] | 206
COc1ccc(N(C)c2ccnc(Nc3cc(N4CCOCC4)cc(N4CCOCC4)c3)n2)cc1OC [Example 15.3, N′-(3,4-dimethoxyphenyl)-N-(3,5-dimorpholin-4-ylphenyl)-N′-methyl-pyrimidine-2,4-diamine] | 1000
COc1ccc(OC)c(N(C)c2ccnc(Nc3cc(N4CCOCC4)cc(N4CCOCC4)c3)n2)c1 [Example 15.4, N′-(2,5-dimethoxyphenyl)-N-(3,5-dimorpholin-4-ylphenyl)-N′-methyl-pyrimidine-2,4-diamine] | 680
COc1cc(OC)cc(N(C)c2ccnc(Nc3cc(N4CCOCC4)cc(N4CCOCC4)c3)n2)c1 [Example 15.5, N′-(3,5-dimethoxyphenyl)-N-(3,5-dimorpholin-4-ylphenyl)-N′-methyl-pyrimidine-2,4-diamine] | 1120
CN(c1ccnc(Nc2cc(N3CCOCC3)cc(N3CCOCC3)c2)n1)c1cccc(Cl)c1C#N [Example 15.6, 2-chloro-6-[[2-[(3,5-dimorpholin-4-ylphenyl)amino]pyrimidin-4-yl]-methyl-amino]benzonitrile] | 417
CN(c1ccc(F)c(F)c1)c1ccnc(Nc2cc(N3CCOCC3)cc(N3CCOCC3)c2)n1 [Example 15.7, N′-(3,4-difluorophenyl)-N-(3,5-dimorpholin-4-ylphenyl)-N′-methyl-pyrimidine-2,4-diamine] | 707
CN(c1ccnc(Nc2cc(N3CCOCC3)cc(N3CCOCC3)c2)n1)c1cc(F)ccc1F [Example 15.8, N′-(2,5-difluorophenyl)-N-(3,5-dimorpholin-4-ylphenyl)-N′-methyl-pyrimidine-2,4-diamine] | 338
CN(c1ccnc(Nc2cc(N3CCOCC3)cc(N3CCOCC3)c2)n1)c1ccc(F)c(F)c1F [Example 15.9, N-(3,5-dimorpholin-4-ylphenyl)-N′-methyl-N′-(2,3,4-trifluorophenyl)pyrimidine-2,4-diamine] | 602
COc1cc(N(C)c2ccnc(Nc3cc(N4CCOCC4)cc(N4CCOCC4)c3)n2)ccc1C [Example 15.10, N-(3,5-dimorpholin-4-ylphenyl)-N′-(3-methoxy-4-methyl-phenyl)-N′-methyl-pyrimidine-2,4-diamine] | 7730
COc1ccc(N(C)c2ccnc(Nc3cc(N4CCOCC4)cc(N4CCOCC4)c3)n2)c(C)c1 [Example 15.11, N-(3,5-dimorpholin-4-ylphenyl)-N′-(4-methoxy-2-methyl-phenyl)-N′-methyl-pyrimidine-2,4-diamine] | 1320

Structure (SMILES) | IC50 [nM]
COc1cc(C)ccc1N(C)c1ccnc(Nc2cc(N3CCOCC3)cc(N3CCOCC3)c2)n1 [Example 15.12, N-(3,5-dimorpholin-4-ylphenyl)-N′-(2-methoxy-4-methyl-phenyl)-N′-methyl-pyrimidine-2,4-diamine] | 1400
COc1ccc(C)cc1N(C)c1ccnc(Nc2cc(N3CCOCC3)cc(N3CCOCC3)c2)n1 [Example 15.13, N-(3,5-dimorpholin-4-ylphenyl)-N′-(2-methoxy-5-methyl-phenyl)-N′-methyl-pyrimidine-2,4-diamine] | 722
COc1ccc(N(C)c2ccnc(Nc3cc(N4CCOCC4)cc(N4CCOCC4)c3)n2)cc1Cl [Example 15.14, N′-(3-chloro-4-methoxy-phenyl)-N-(3,5-dimorpholin-4-ylphenyl)-N′-methyl-pyrimidine-2,4-diamine] | 500
CN(c1ccnc(Nc2cc(N3CCOCC3)cc(N3CCOCC3)c2)n1)c1cccc(Cl)c1F [Example 15.15, N′-(3-chloro-2-fluoro-phenyl)-N-(3,5-dimorpholin-4-ylphenyl)-N′-methyl-pyrimidine-2,4-diamine] | 696
CN(c1ccc(Cl)c(F)c1)c1ccnc(Nc2cc(N3CCOCC3)cc(N3CCOCC3)c2)n1 [Example 15.16, N′-(4-chloro-3-fluoro-phenyl)-N-(3,5-dimorpholin-4-ylphenyl)-N′-methyl-pyrimidine-2,4-diamine] | 634
CN(c1ccnc(Nc2cc(N3CCOCC3)cc(N3CCOCC3)c2)n1)c1ccc(Cl)cc1F [Example 15.17, N′-(4-chloro-2-fluoro-phenyl)-N-(3,5-dimorpholin-4-ylphenyl)-N′-methyl-pyrimidine-2,4-diamine] | 1150
Cc1ccc(Cl)c(N(C)c2ccnc(Nc3cc(N4CCOCC4)cc(N4CCOCC4)c3)n2)c1 [Example 15.18, N′-(2-chloro-5-methyl-phenyl)-N-(3,5-dimorpholin-4-ylphenyl)-N′-methyl-pyrimidine-2,4-diamine] | 1390
Cc1ccc(N(C)c2ccnc(Nc3cc(N4CCOCC4)cc(N4CCOCC4)c3)n2)cc1Cl [Example 15.19, N′-(3-chloro-4-methyl-phenyl)-N-(3,5-dimorpholin-4-ylphenyl)-N′-methyl-pyrimidine-2,4-diamine] | 1730
Cc1cccc(Cl)c1N(C)c1ccnc(Nc2cc(N3CCOCC3)cc(N3CCOCC3)c2)n1 [Example 15.20, N′-(2-chloro-6-methyl-phenyl)-N-(3,5-dimorpholin-4-ylphenyl)-N′-methyl-pyrimidine-2,4-diamine] | 1750
CN(c1ccnc(Nc2cc(N3CCOCC3)cc(N3CCOCC3)c2)n1)c1cccc(Cl)c1Cl [Example 15.21, N′-(2,3-dichlorophenyl)-N-(3,5-dimorpholin-4-ylphenyl)-N′-methyl-pyrimidine-2,4-diamine] | 1310
CN(c1ccc(F)c(Cl)c1)c1ccnc(Nc2cc(N3CCOCC3)cc(N3CCOCC3)c2)n1 [Example 15.22, N′-(4-fluoro-3-chloro-phenyl)-N-(3,5-dimorpholin-4-ylphenyl)-N′-methyl-pyrimidine-2,4-diamine] | 316
CCOc1cc(Nc2nccc(N(C)c3cc(CO)ccc3C)n2)cc(N2CCOCC2)c1 [Example 16, [3-[[2-[(3-ethoxy-5-morpholin-4-yl-phenyl)amino]pyrimidin-4-yl]-methyl-amino]-4-methyl-phenyl]methanol] | 132
CCCOc1cc(Nc2nccc(N(C)c3cc(CO)ccc3C)n2)cc(N2CCOCC2)c1 [Example 17.1, [4-methyl-3-[methyl-[2-[(3-morpholin-4-yl-5-propoxy-phenyl)amino]pyrimidin-4-yl]amino]phenyl]methanol] | 265
Cc1ccc(CO)cc1N(C)c1ccnc(Nc2cc(OC(C)C)cc(N3CCOCC3)c2)n1 [Example 17.2, [4-methyl-3-[methyl-[2-[(3-morpholin-4-yl-5-propan-2-yloxy-phenyl)amino]pyrimidin-4-yl]amino]phenyl]methanol] | 171
Cc1ccc(CO)cc1N(C)c1ccnc(Nc2cc(OCC(C)C)cc(N3CCOCC3)c2)n1 [Example 17.3, [4-methyl-3-[methyl-[2-[[3-(2-methylpropoxy)-5-morpholin-4-yl-phenyl]amino]pyrimidin-4-yl]amino]phenyl]methanol] | 1910
Cc1ccc(CO)cc1N(C)c1ccnc(Nc2cc(OCC3CC3)cc(N3CCOCC3)c2)n1 [Example 17.4] | 1090
